# Data published in patent US11976072B2, “Diacylglycerol kinase modulating compounds” (priority 2021, dated 2024).
# How the values were obtained:
# human DGKα = human DGKα (Homo sapiens, UniProt P23743); assay: DGKα Biochemical Activity Assay (ADP-Glo); details: recombinant DGKα 1 nM, 100 μM ATP, 18:1 DAG/POPS/octylglucoside micelles, 1 hour at 25° C.; geometric mean; read-out: HTBS DGKa 1X ATP KM IC50;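 note: luminescent detection of ADP produced as DGKα phosphorylates DAG to phosphatidic acid, IC50 from four-parameter nonlinear curve fit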
# human DGKα, sequence (P23743 whole entry): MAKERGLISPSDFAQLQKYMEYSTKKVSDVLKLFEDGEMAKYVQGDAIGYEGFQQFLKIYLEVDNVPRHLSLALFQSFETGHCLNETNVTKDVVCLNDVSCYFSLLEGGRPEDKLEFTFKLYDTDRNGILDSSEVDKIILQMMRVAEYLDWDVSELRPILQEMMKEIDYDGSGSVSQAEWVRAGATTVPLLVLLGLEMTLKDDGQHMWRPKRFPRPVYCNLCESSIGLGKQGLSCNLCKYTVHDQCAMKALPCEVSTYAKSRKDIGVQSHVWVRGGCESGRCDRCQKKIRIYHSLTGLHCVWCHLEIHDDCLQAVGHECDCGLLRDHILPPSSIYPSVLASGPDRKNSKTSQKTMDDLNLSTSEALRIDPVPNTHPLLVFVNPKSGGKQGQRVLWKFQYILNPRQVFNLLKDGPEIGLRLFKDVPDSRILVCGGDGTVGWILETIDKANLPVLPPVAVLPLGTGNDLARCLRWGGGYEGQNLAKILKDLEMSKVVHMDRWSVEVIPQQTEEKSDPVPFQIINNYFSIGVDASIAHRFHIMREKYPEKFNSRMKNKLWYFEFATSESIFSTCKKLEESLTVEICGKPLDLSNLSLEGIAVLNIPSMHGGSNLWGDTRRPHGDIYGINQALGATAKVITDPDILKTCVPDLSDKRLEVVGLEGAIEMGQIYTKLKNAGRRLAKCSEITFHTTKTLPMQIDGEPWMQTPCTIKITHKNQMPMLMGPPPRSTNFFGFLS
# From the text: Alternatively, the enzymatic activity of human DGKα was monitored in a biochemical assay in the presence or absence of compounds and using micelles containing 18:1 Diacylglycerol (DAG), 16:0-18:1 PS (POPS) and Octylglucoside as substrate. DGKα activity led to conversion of DAG and ATP to Phosphatidic Acid (PA) and ADP. Levels of ADP were monitored by bioluminescence using the ADP-Glo Kinase Assay (Promega) and were indicative of DGKα activity.
# Recombinant DGKα (Carna Biosciences) in assay buffer (5 μL in 50 mM MOPS [3-(N-morpholino) propanesulfonic acid], pH 7.2; 0.0025% Triton X-100; 1 mM dithiothreitol; 5 mM MgCl2, 200 μM ATP) was added to the compound-containing plate and was incubated for 15 minutes at 25° C. […] The reaction mixture was incubated at 25° C. for 1 hour. ADP-Glo Reagent (10 μL, 10 mM Mg added) provided by the kit was added to each well and incubated at 25° C. for 40 minutes. Then, 20 μL of Kinase Detection Reagent was added and incubated at 25° C. for 40 minutes. Luciferase activity of each well was measured via luminescence on an Envision plate reader (PerkinElmer).
# Least squares curve fittings were performed using a four-parameter variable slope nonlinear regression model. […] IC50 values from multiple experiments were averaged by geometric mean and the standard deviation was calculated.
# [1] = test system: Jurkat NFκB-luciferase cells; assay: Jurkat NFκB-Luciferase Assay; format: cell-based; details: Homo sapiens; Jurkat NFκB-luciferase cells activated with anti-CD3 antibody (OKT3), 2.5 hrs at 37° C.; geometric mean; read-out: DGK NFKb Luciferase EC50
# Method in brief: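 Jurkat NFκB-luciferase reporter cells at 1 million cells/ml in RPMI with 10% FBS were added to antibody-coated, compound-containing wells. Luciferase activity read by One-Glo Ex luminescence 7 minutes after reagent addition.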
Compound,IC50 (human DGKα) [nM],EC50 [1] [nM]
"Cc1nnc2nc(N3CCCc4c(C#Cc5ccn[nH]5)cccc43)c3c(F)cccc3n12 [Example 215, 5-(5-((1H-pyrazol-5-yl)ethynyl)-3,4-dihydroquinolin-1(2H)-yl)-6-fluoro-1-methyl-[1,2,4]triazolo[4,3-a]quinazoline]",25.2,9.95
"Cc1cccc2c1c(N1CCOCc3c(C#CC4(C)CC4)cccc31)nc1nnc(C)n12 [Example 216, 1-(1,6-dimethyl-[1,2,4]triazolo[4,3-a]quinazolin-5-yl)-6-((1-methylcyclopropyl)ethynyl)-1,2,3,5-tetrahydrobenzo[e][1,4]oxazepine]",24.3,5.42
"Cc1cccc2c1c(N1CCOCc3c(C#CC(C)(C)C#N)cccc31)nc1nnc(C)n12 [Example 217, 4-(1-(1,6-dimethyl-[1,2,4]triazolo[4,3-a]quinazolin-5-yl)-1,2,3,5-tetrahydrobenzo[e][1,4]oxazepin-6-yl)-2,2-dimethylbut-3-ynenitrile]",31.7,16
"Cc1nnc2nc(N3CCOCc4c(C#Cc5cnn(C)c5)cccc43)c3c(F)cccc3n12 [Example 218, 1-(6-fluoro-1-methyl-[1,2,4]triazolo[4,3-a]quinazolin-5-yl)-6-((1-methyl-1H-pyrazol-4-yl)ethynyl)-1,2,3,5-tetrahydrobenzo[e][1,4]oxazepine]",14.5,33.9
"Cc1nnc2nc(N3CCCc4c(C#Cc5cnc(C(F)(F)F)nc5)cccc43)c3c(F)cccc3n12 [Example 220, 6-fluoro-1-methyl-5-(5-((2-(trifluoromethyl)pyrimidin-5-yl)ethynyl)-3,4-dihydroquinolin-1(2H)-yl)-[1,2,4]triazolo[4,3-a]quinazoline]",21.8,0.346
"CCCCCc1cc(C2(C#Cc3cccc4c3CCCN4c3nc4nnc(C)n4c4cccc(F)c34)CC2)no1 [Example 221, 3-(1-((1-(6-fluoro-1-methyl-[1,2,4]triazolo[4,3-a]quinazolin-5-yl)-1,2,3,4-tetrahydroquinolin-5-yl)ethynyl)cyclopropyl)-5-pentylisoxazole]",122,0.647
"Cc1nnc2nc(N3CCCc4c(C#Cc5ccnn5C)cccc43)c3cc(F)ccc3n12 [Example 223, 7-fluoro-1-methyl-5-[5-[2-(2-methylpyrazol-3-yl)ethynyl]-3,4-dihydro-2H-quinolin-1-yl]-[1,2,4]triazolo[4,3-a]quinazoline]",40.7,9.21
"Cc1nnc2nc(N3CCCc4c(C#Cc5ccn[nH]5)cccc43)c3cc(F)ccc3n12 [Example 224, 7-fluoro-1-methyl-5-[5-[2-(1H-pyrazol-5-yl)ethynyl]-3,4-dihydro-2H-quinolin-1-yl]-[1,2,4]triazolo[4,3-a]quinazoline]",15.1,8.38

# These reach a lower IC50 (human DGKα). Values come first.
IC50 (human DGKα) [nM],EC50 [1] [nM],Compound
11.2,1.3,COc1cncc(C#Cc2cccc3c2CCCN3c2nc3nnc(C)n3c3ccc(F)cc23)c1 [Example 219]
10,1.28,"Cc1nnc2nc(N3CCCc4c(C#Cc5ccc(C#N)nc5)cccc43)c3c(F)cccc3n12 [Example 213, 5-((1-(6-fluoro-1-methyl-[1,2,4]triazolo[4,3-a]quinazolin-5-yl)-1,2,3,4-tetrahydroquinolin-5-yl)ethynyl)picolinonitrile]"
9.08,3.29,"Cc1nnc2nc(N3CCOCc4c(C#Cc5ccnn5C)cccc43)c3c(F)cccc3n12 [Example 214, 1-(6-fluoro-1-methyl-[1,2,4]triazolo[4,3-a]quinazolin-5-yl)-6-((1-methyl-1H-pyrazol-5-yl)ethynyl)-1,2,3,5-tetrahydrobenzo[e][1,4]oxazepine]"
6.29,0.718,"COc1ccc(C#Cc2cccc3c2COCCN3c2nc3nnc(C)n3c3cccc(F)c23)cn1 [Example 222, 1-(6-fluoro-1-methyl-[1,2,4]triazolo[4,3-a]quinazolin-5-yl)-6-((6-methoxypyridin-3-yl)ethynyl)-1,2,3,5-tetrahydrobenzo[e][1,4]oxazepine]"
